Experimental data reported in US20220249441A1, “Homodimeric Tobramycin Adjuvant Repurposes Novobiocin as an Effective Antibacterial Agent Against Gram-Negative Bacteria” (priority 2019, published 2022).
Converted amounts (≈) assume the structure as drawn.

Legend:
P. aeruginosa = experiment: Checkerboard assay (antibiotic + adjuvant combination MIC); format: cell-based, Pseudomonas aeruginosa
[1] = tested on: A. baumannii ATCC 17978 and resistant mutants; experiment: microbe, parasite or virus in culture; format: cell-based, Acinetobacter baumannii; details: Acinetobacter baumannii
Description: Antimicrobial Susceptibility Assay. The in vitro antimicrobial activity of all compounds/antibiotics against a panel of bacteria was evaluated by microbroth dilution method in accordance with the Clinical and Laboratory Standards Institute (CLSI) guidelines (using ATCC strains as quality control strains) (54). Overnight grown bacterial cultures were diluted in saline to achieve a 0.5 McFarland turbidity, followed by 1:50 dilution in Mueller-Hinton broth (MHB) for inoculation to a final concentration of approximately 5×10^5 CFU/mL. […] The lowest concentration that prevented the visible growth of bacteria was defined as the MIC for each antimicrobial agent. The broth with or without bacterial cells was used as positive or negative control, respectively.
Development of Resistance Study. […] Tobramycin and colistin were included as controls. At 24-hour intervals, the cultures were assessed for growth. […] This serial passaging was repeated for 8 days.

[2] = tested on: MDR/XDR P. aeruginosa, Acinetobacter baumannii, Escherichia coli, Klebsiella pneumoniae, and Enterobacter cloacae; format: cell-based; details: Gram-negative bacteria
Description: Next, we investigated whether tobramycin by itself would potentiate novobiocin against Gram-negative bacteria.
Checkerboard Assay. Combination studies with different antibiotics were performed in 96-well plates as previously described (19). Briefly, the antibiotic of interest was serially diluted in MHB along the abscissa while the adjuvant (tobramycin homodimer) was serially diluted in MHB along the ordinate. This creates a 10×7 matrices wherein each well consists of a combination of different antibiotic and adjuvant concentrations. Overnight grown bacterial cultures were diluted in saline to achieve a 0.5 McFarland turbidity, followed by 1:50 dilution in Mueller-Hinton broth (MHB) for inoculation to a final concentration of approximately 5×10^5 CFU/mL. […] MIC was recorded as wells with the lowest concentration of drugs with no bacterial growth. The fractional inhibitory concentration (FIC) for each antibiotic was calculated by dividing the MIC of the antibiotic in the presence of adjuvant by the MIC of the antibiotic alone. Similarly, the FIC of adjuvant was calculated by dividing the MIC of the adjuvant in the presence of antibiotic by the MIC of the adjuvant alone. FIC index is the sum of both FICs. FIC indices of ≤0.5 were deemed synergistic; >0.5-4, no interaction; and >4, antagonistic.

Description for porcine erythrocytes: Hemolytic Assay. The hemolytic activities of the newly synthesized compounds were determined and quantified as the amount of hemoglobin released by lysing porcine erythrocytes. […] The final cell concentration used was 3×10^8 cells/mL. Compounds were serially diluted with PBS and added to wells in a 96-well plate at twice the desired concentrations. […] Intact erythrocytes were subsequently pelleted by centrifuging at 1000 g at 4° C. for 10 mins, and the supernatants were transferred to a new 96-well plate. […] Blood cells in PBS (0% hemolysis) and 0.1% Triton X-100 (100% hemolysis) were used as negative and positive controls, respectively. Percent hemolysis was calculated as [% hemolysis=(X−0%)/(100%−0%)], where X is the optical density values of the compounds at different concentrations (49).

In the case of `CC(C)(O/N=C(\C(=O)N[C@@H]1C(=O)N2C(C(=O)[O-])=C(C[n+]3ccccc3)CS[C@H]12)c1csc(N)n1)C(=O)O` [Ceftazidime, reference compound], the MIC Alone (P. aeruginosa; P. aeruginosa PAO1, β-lactam antibiotic alone) is reported as 2 µg/mL, the MIC of CAZ alone (P. aeruginosa; PA 259-96918) is reported as 512 µg/mL and the MIC of CAZ alone (P. aeruginosa; PA 260-97103) is reported as 32 µg/mL. It also gave an MIC of CAZ alone (P. aeruginosa; PA 262-101856) of 16 µg/mL, an MIC of CAZ alone (P. aeruginosa; PA 264-104354) of 128 µg/mL and an MIC of CAZ alone (P. aeruginosa; PA 86052) of 64 µg/mL. For the same compound, the MIC of CAZ alone (P. aeruginosa; PA 88949) was 64 µg/mL, the MIC of CAZ alone (P. aeruginosa; PA 91433) was 4 µg/mL and the MIC of CAZ alone (P. aeruginosa; PA 100036) was 8 µg/mL. The MIC of CAZ alone (P. aeruginosa; PA 101243) was 64 µg/mL, the MIC of CAZ alone (P. aeruginosa; PA 101885) was 8 µg/mL and the MIC of CAZ alone (P. aeruginosa; PA 107092) was 128 µg/mL. It also gave an MIC of CAZ alone (P. aeruginosa; PA 108590) of 32 µg/mL, an MIC of CAZ alone (P. aeruginosa; PA 109084) of 64 µg/mL and an MIC of CAZ alone (P. aeruginosa; PA 114228) of 8 µg/mL. The MIC of CAZ alone (P. aeruginosa; PAO1) was 2 µg/mL, the MIC of CAZ alone (P. aeruginosa; PAO200 (efflux-deficient)) was 1 µg/mL and the MIC of CAZ alone (P. aeruginosa; PAO750 (efflux-deficient)) was 0.5 µg/mL. It also gave an MIC ([1]; ATCC17978, 18 h, Mutant C (seven serial passages, sub-MICs novobiocin + 7.1 μM compound 1)) of 16 µg/mL, an MIC ([1]; ATCC17978, Mutant A (seven serial passages, sub-MICs novobiocin)) of 32 µg/mL (≈ 58.5 µM) and an MIC ([1]; ATCC17978, Mutant B (seven serial passages, sub-MICs colistin)) of 1 µg/mL (≈ 1.83 µM). For the same compound, the MIC ([1]; ATCC17978, Wild-type A. baumannii ATCC 17978) was 16 µg/mL (≈ 29.3 µM) and the synergy with novobiocin [2] was “did not show any synergy”.
For `NC[C@H]1O[C@H](O[C@H]2[C@H](OCCCCCCn3cc(CCCCO[C@@H]4[C@@H](O[C@H]5O[C@H](CO)[C@@H](O)[C@H](N)[C@H]5O)[C@H](N)C[C@H](N)[C@H]4O[C@H]4O[C@H](CN)[C@@H](O)C[C@H]4N)nn3)[C@@H](O[C@H]3O[C@H](CO)[C@@H](O)[C@H](N)[C@H]3O)[C@H](N)C[C@@H]2N)[C@H](N)C[C@@H]1O.O=C(O)C(F)(F)F.O=C(O)C(F)(F)F.O=C(O)C(F)(F)F.O=C(O)C(F)(F)F.O=C(O)C(F)(F)F.O=C(O)C(F)(F)F.O=C(O)C(F)(F)F.O=C(O)C(F)(F)F.O=C(O)C(F)(F)F.O=C(O)C(F)(F)F` [Compound 2, Tobramycin Homodimer 2], the “hemolysis of porcine erythrocytes” value (porcine erythrocytes) was “non-hemolytic”.
